Laboratory results published in US20250127774A1, “COMPOUNDS FOR LABELLING NUCLEIC ACID AND USES THEREOF” (THE ROYAL INSTITUTION FOR THE ADVANCEMENT OF …, priority 2022, published 2025).

Columns and labels:
[1] = system: VdU-labeled DNA in living Hela cells; assay: Live-cell metabolic labeling, PINK staining kinetics; assay type: cell-based
Procedure: To evaluate the ability of PINK to enter live cells and undergo fluorogenic reactions with vinyl groups in native chromatin, Hela cells were grown in rich media containing 10 μM VdU for 15 h and subsequently stained with 1-2 μM PINK for 4 h. Total cellular DNA was counterstained with Hoechst […] (5 μM; 405 nm laser; emission 410-480 nm) for 10 minutes prior to imaging PINK (514 nm laser; emission 570-700 nm). Control (ctrl) samples were treated with PINK but not VdU. All cells were treated and maintained in DMEM media containing 10% FBS and grown in 5% CO2 at 37° C. Live cell images were acquired using a confocal microscope.
The intracellular reaction kinetics of PINK staining was next investigated. Cells were seeded at a concentration of 2.5×10^4 cells/mL, allowed to settle overnight, and incubated with 100 μM VdU for 24 h. Cells were stained with 10 μM PINK between 10 min and 25 h, co-stained with Hoechst 33342 (5 μg/mL), and images were acquired on a confocal microscope. Samples were optimized for an ideal signal to noise ratio after staining for 1 h, illustrating a sufficiently bright signal at this stage. Ctrl samples were exposed to PINK for 25 h, thus explaining the relatively high background. […] Labeling was efficient in multiple cell lines. U2OS cells were seeded in μ-slide 8-well (Ibidi®) (3.0×10^4 cells in 200 μL; 1.5×10^5 cells/mL) in DMEM and given 20 h to settle. Cells were aspirated and VdU (0-100 μM in 200 μL DMEM) was added. Cells were incubated for 18 h, aspirated, and PINK (5 μM in 200 μL DMEM, 0.05% DMSO) was added. Cells were incubated for 5 h, aspirated, and Hoechst 33342 (2 μg/mL in 200 μL DMEM) was added for 15 min. Cells were aspirated and the media was exchanged for 200 μL DMEM (-Phenol Red). Images were acquired on a confocal microscope (FIG. 11). […] Cells (5.0×10^4 cells/mL) were seeded and allowed to settle overnight. Cells were incubated with 20 μM VdU for 16 h and stained with 2 μM PINK for 5 h, Cells were aspirated and fresh media (w/o Phenol Red) was added. Control Samples received identical treatment, but were not exposed to VdU. […]

[2] = Photophysical measurements (quantum yield) of PINK and PINK-VdU-ox; assay type: physicochemical; conditions: excitation 488 nm, Rhodamine 6G standard; PINK in aqueous and aprotic solvents, 6 depending on the solvent used
Procedure: PINK (4) undergoes a highly fluorogenic and regioselective IEDDA reaction with VdU (5) to give “PINK-VdU-ox” (6) as a single isomer in a 76% isolated yield after 7d at 60° C. (Scheme 1). The slow rate of this non-templated reaction (Kapp=0.01 M^−1 s^−1, FIG. 5) is due to the combination of an unstrained terminal alkene and unactivated tetrazine.^[49] Over the course of the reaction, a ˜100-fold increase in fluorescence was observed (FIG. 3, c). With a quantum yield (φF)<0.2%, PINK (4) is essentially non-fluorescent in both aqueous and aprotic solvents (FIG. 6).
Highly viscous solvents, including glycerol and polyethylene glycol (PEG 200) induced higher fluorescence of 6, likely by restricting bond rotation and thus suppressing formation of a non-emissive, twisted intramolecular charge transfer (TICT) state.^[50]
Photophysical Measurements. Stock solutions (1-10 mM) of investigated compounds were prepared in DMSO and stored at −20° C. DMSO concentrations were less than 1% after dilution into the respective solvent/aqueous buffer. Measurements were collected on a SpectraMax M5 plate reader (Molecular Devices, Sunnyvale, CA, USA) in 1 cm path-length quartz cuvettes. Quantum yields were obtained by excitation at 488 nm using Rhodamine 6G ((=0.94) in EtOH (n=1.3624) as a fluorescent standard.^[1] Quantum yields were calculated using the equation I: […]

Jurkat cells = assay: Cell counting assay (Trypan Blue); assay type: cell-based, human; conditions: 10 μM nucleoside, 1 μM PINK
Procedure: (§1) To confirm the cytotoxicity results obtained from the resazurin assays, a cell counting assay was conducted using Trypan Blue. It is an azo dye allows to discriminate between viable cells and dead cells, since dead cells will take in the dye, while viable cells will remain white. 28 From the resazurin assays, and after some optimization based on cell sensitivity to the vinyl-nucleosides, it was determined that […] and 5 μM of vinyl-nucleosides alone and in combination with 1 μM of PINK were two interesting concentrations to explore in Jurkat, MV4-11, and MOLM-13 cells. Cells were incubated with 5 μM or 10 μM of each nucleoside overnight (Day 0), and 1 μM of PINK was added for the combinations and PINK alone 24h post nucleoside incubation (Day 1). The cells were counted every 24h.
(§2) Cell Counting Assay. Jurkat, MV4-11 and MOLM-13 cells were seeded in 12-well plates at a density of 500 000 cells/mL, 175 000 cells/mL and 375 000 cells/mL, respectively, in duplicates. The cells were incubated overnight in fresh media containing 10 μM (Jurkat) or 5 μM (MV4-11 and MOLM-13) of each nucleoside (˜0.01% DMSO). 24h post nucleoside addition, 1 μM of PINK (˜0.01% DMSO) were added to the respective wells and incubated for 24 h. The cells were counted using a cell counter (BIO RAD TC20) to determine the percentage of viable cells and the cell concentration. The cells were counted every 24h using Trypan Blue in a 1:1 ratio.

MV4-11 cells = assay: Cell counting assay (Trypan Blue); assay type: cell-based, human; conditions: MV4-11, 5 μM nucleoside, 1 μM PINK
Procedure: as §1, §2

MOLM-13 cells = assay: Cell counting assay (Trypan Blue); assay type: cell-based, human; conditions: MOLM-13, 5 μM nucleoside, 1 μM PINK
Procedure: as §1, §2

[3] = 100 μM VdU 24 h, then 10 μM PINK

Row | SMILES | retention of fluorescent signal in living cells ([1]; 20 μM VdU 16 h, 2 μM PINK 5 h, fresh media, t=0, 24 h) | incubation time after which a clear signal above background is observed [1, 3] [h] | staining duration ideal to achieve complete labeling [1, 3] [h] | quantum yield (φF) [2] [%] | cell concentration (cell growth) (Jurkat cells) | cell concentration (cell growth) (MV4-11 cells) | cell concentration (cell growth) (MOLM-13 cells)
1 | Cc1nnc(-c2ccc3cc4ccc(N(C)C)cc4nc3c2)nn1 [PINK] | retained in living cells 24 h after being removed from the media | 1 | 5 | < 0.2 |  |  | 
2 | C=Cc1cn([C@H]2C[C@H](O)[C@@H](CO)O2)c(=O)[nH]c1=O [VdU, 5-vinyl-2′-deoxyuridine] |  |  |  |  | more impact on cell growth than expected from the resazurin assay | significantly inhibited cell growth | seem to inhibit cell growth
